Measured values reported in PubChem BioAssay AID1963840 (Molecular Pharmacology Branch, DTP, NCI, 2024).

System: 695427-040-R-J1-PDC complex spheroid viability
Test: Anticancer human tumor 695427-040-R-J1-PDC patient-derived colon adenocarcinoma cell line growth inhibition [POLQ]
Conditions: for IC50: curve of first compound; for viability, T/C: stronger effect = lower value
Outline: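 Patient-derived tumour cells were co-cultured with HUVEC and mesenchymal stem cells as multicellular spheroids at 37 °C. They were treated with POLQ inhibitors (novobiocin, ART-558, RP6685) alone or combined with other agents. Top concentrations were at or near clinical Cmax (otherwise 10 microM; SN-38 at 1 microM), decreasing in half-log steps.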

[1] = second compound 0.0316 µM, first compound 0.0316 µM
[2] = second compound 0.0316 µM, first compound 0.1 µM
[3] = second compound 0.0316 µM, first compound 0.316 µM
[4] = second compound 0.0316 µM, first compound 1 µM
[5] = second compound 0.0316 µM, first compound 3.16 µM
[6] = second compound 0.0316 µM, first compound 10 µM
[7] = second compound 0.1 µM, first compound 0.0316 µM
[8] = second compound 0.1 µM, first compound 0.1 µM
[9] = second compound 0.1 µM, first compound 0.316 µM
[10] = second compound 0.1 µM, first compound 1 µM
[11] = second compound 0.1 µM, first compound 3.16 µM
[12] = second compound 0.1 µM, first compound 10 µM
[13] = second compound 0.316 µM, first compound 0.0316 µM
[14] = second compound 0.316 µM, first compound 0.1 µM
[15] = second compound 0.316 µM, first compound 0.316 µM
[16] = second compound 0.316 µM, first compound 1 µM
[17] = second compound 0.316 µM, first compound 3.16 µM
[18] = second compound 0.316 µM, first compound 10 µM
[19] = second compound 1 µM, first compound 0.0316 µM
[20] = second compound 1 µM, first compound 0.1 µM
[21] = second compound 1 µM, first compound 0.316 µM
[22] = second compound 1 µM, first compound 1 µM
[23] = second compound 1 µM, first compound 3.16 µM
[24] = second compound 1 µM, first compound 10 µM
[25] = second compound 3.16 µM, first compound 0.0316 µM
[26] = second compound 3.16 µM, first compound 0.1 µM
[27] = second compound 3.16 µM, first compound 0.316 µM
[28] = second compound 3.16 µM, first compound 1 µM
[29] = second compound 3.16 µM, first compound 3.16 µM
[30] = second compound 3.16 µM, first compound 10 µM
[31] = second compound 10 µM, first compound 0.0316 µM
[32] = second compound 10 µM, first compound 0.1 µM
[33] = second compound 10 µM, first compound 0.316 µM
[34] = second compound 10 µM, first compound 1 µM
[35] = second compound 10 µM, first compound 3.16 µM
[36] = second compound 10 µM, first compound 10 µM
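Also: spheroids exposed to compounds for seven days.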
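For viability, T/C in this document: 100% = DMSO vehicle control viability.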

SMILES: CC1COCCN1c1cc(C2(S(C)(=N)=O)CC2)nc(-c2ccnc3[nH]ccc23)n1 (stereo unspecified) + Nc1ccc(C#CCN(C(=O)Cc2ncc(C(F)(F)F)cc2C(F)(F)F)c2ccc(F)cc2)nn1
- IC50 (second compound 0.0316 µM): > 10 µM
- IC50 (second compound 0.1 µM): > 10 µM
- IC50 (second compound 0.316 µM): > 10 µM
- IC50 (second compound 1 µM): > 10 µM
- IC50 (second compound 3.16 µM): > 10 µM
- IC50 (second compound 10 µM): > 10 µM
- viability, T/C [1]: 110%
- viability, T/C [2]: 103%
- viability, T/C [3]: 99.4%
- viability, T/C [4]: 106%
- viability, T/C [5]: 99.6%
- viability, T/C [6]: 96.2%
- viability, T/C [7]: 108%
- viability, T/C [8]: 100%
- viability, T/C [9]: 97.4%
- viability, T/C [10]: 98.1%
- viability, T/C [11]: 112%
- viability, T/C [12]: 94.5%
- viability, T/C [13]: 96.8%
- viability, T/C [14]: 104%
- viability, T/C [15]: 93.9%
- viability, T/C [16]: 104%
- viability, T/C [17]: 99.9%
- viability, T/C [18]: 82.2%
- viability, T/C [19]: 102%
- viability, T/C [20]: 101%
- viability, T/C [21]: 102%
- viability, T/C [22]: 102%
- viability, T/C [23]: 102%
- viability, T/C [24]: 86.6%
- viability, T/C [25]: 100%
- viability, T/C [26]: 95.1%
- viability, T/C [27]: 99.3%
- viability, T/C [28]: 101%
- viability, T/C [29]: 95.4%
- viability, T/C [30]: 88.2%
- viability, T/C [31]: 104%
- viability, T/C [32]: 97.9%
- viability, T/C [33]: 95%
- viability, T/C [34]: 96.7%
- viability, T/C [35]: 91.6%
- viability, T/C [36]: 74.9%

SMILES: O=C(Nc1ccc(O)c(NS(=O)(=O)c2ccc(F)cc2)c1)c1ccc(-c2ccccc2)cc1 + COC1C(OC(N)=O)C(O)C(Oc2ccc3c(O)c(NC(=O)c4ccc(O)c(CC=C(C)C)c4)c(=O)oc3c2C)OC1(C)C
- IC50 (second compound 0.0316 µM): > 10 µM
- IC50 (second compound 0.1 µM): > 10 µM
- IC50 (second compound 0.316 µM): > 10 µM
- IC50 (second compound 1 µM): > 10 µM
- IC50 (second compound 3.16 µM): > 10 µM
- IC50 (second compound 10 µM): > 10 µM
- viability, T/C [1]: 104%
- viability, T/C [2]: 97.7%
- viability, T/C [3]: 105%
- viability, T/C [4]: 103%
- viability, T/C [5]: 103%
- viability, T/C [6]: 89.3%
- viability, T/C [7]: 116%
- viability, T/C [8]: 99.9%
- viability, T/C [9]: 106%
- viability, T/C [10]: 102%
- viability, T/C [11]: 103%
- viability, T/C [12]: 95.8%
- viability, T/C [13]: 103%
- viability, T/C [14]: 103%
- viability, T/C [15]: 110%
- viability, T/C [16]: 105%
- viability, T/C [17]: 104%
- viability, T/C [18]: 104%
- viability, T/C [19]: 110%
- viability, T/C [20]: 107%
- viability, T/C [21]: 107%
- viability, T/C [22]: 106%
- viability, T/C [23]: 108%
- viability, T/C [24]: 90.8%
- viability, T/C [25]: 108%
- viability, T/C [26]: 101%
- viability, T/C [27]: 102%
- viability, T/C [28]: 110%
- viability, T/C [29]: 115%
- viability, T/C [30]: 89.7%
- viability, T/C [31]: 104%
- viability, T/C [32]: 100%
- viability, T/C [33]: 112%
- viability, T/C [34]: 105%
- viability, T/C [35]: 114%
- viability, T/C [36]: 88.3%

SMILES: CCc1c2c(nc3ccc(O)cc13)-c1cc3c(c(=O)n1C2)COC(=O)[C@]3(O)CC + Cc1cccc(N(C)C(=O)C2C(O)CCN2c2nc(C)cc(C(F)(F)F)c2C#N)c1
- IC50 (second compound 0.0316 µM): > 1 µM
- IC50 (second compound 0.1 µM): > 1 µM
- IC50 (second compound 0.316 µM): > 1 µM
- IC50 (second compound 1 µM): > 1 µM
- IC50 (second compound 3.16 µM): 0.912 µM
- IC50 (second compound 10 µM): 0.572 µM
- viability, T/C (second compound 0.0316 µM, first compound 0.00316 µM): 101%
- viability, T/C (second compound 0.0316 µM, first compound 0.01 µM): 90.1%
- viability, T/C [1]: 83%
- viability, T/C [2]: 81.7%
- viability, T/C [3]: 66.1%
- viability, T/C [4]: 51.4%
- viability, T/C (second compound 0.1 µM, first compound 0.00316 µM): 99.6%
- viability, T/C (second compound 0.1 µM, first compound 0.01 µM): 98.9%
- viability, T/C [7]: 80.5%
- viability, T/C [8]: 76.3%
- viability, T/C [9]: 69.3%
- viability, T/C [10]: 52.8%
- viability, T/C (second compound 0.316 µM, first compound 0.00316 µM): 93.2%
- viability, T/C (second compound 0.316 µM, first compound 0.01 µM): 92.8%
- viability, T/C [13]: 90.7%
- viability, T/C [14]: 75.8%
- viability, T/C [15]: 67.4%
- viability, T/C [16]: 49.7%
- viability, T/C (second compound 1 µM, first compound 0.00316 µM): 96.2%
- viability, T/C (second compound 1 µM, first compound 0.01 µM): 94.5%
- viability, T/C [19]: 85.2%
- viability, T/C [20]: 77.3%
- viability, T/C [21]: 67.9%
- viability, T/C [22]: 51.2%
- viability, T/C (second compound 3.16 µM, first compound 0.00316 µM): 89.4%
- viability, T/C (second compound 3.16 µM, first compound 0.01 µM): 84.9%
- viability, T/C [25]: 82.2%
- viability, T/C [26]: 82.8%
- viability, T/C [27]: 66.3%
- viability, T/C [28]: 48.6%
- viability, T/C (second compound 10 µM, first compound 0.00316 µM): 84.2%
- viability, T/C (second compound 10 µM, first compound 0.01 µM): 80.7%
- viability, T/C [31]: 78.9%
- viability, T/C [32]: 70.5%
- viability, T/C [33]: 58.5%
- viability, T/C [34]: 41.7%
